Measured values as given in patent US9139523B2, “5-HT2B receptor antagonists” (Janssen Pharmaceutica, NV, priority 2010, dated 2015).

Tests used:
5HT2A = target: T1, 5HT2A (Homo sapiens, UniProt P28223); experiment: Competitive radioligand binding, 5HT2A; conditions: NIH3T3 membranes, 3H-ketanserin 2 nM; read-out: pIC50 5HT2A (converted)
T1 construct: expressed in transfected cells; host or cells: NIH3T3 (membrane fraction)
Experimental: (§1) Competitive radioligand binding assays were used to determine the affinity of the test compounds for a particular receptor. Various concentrations of the non-labelled test compound were added to the incubation mixture with the membrane fraction, containing the receptor of interest, and a fixed low concentration (nM) of the radioligand. During the incubation the radioligand bound to the receptor, but this was inhibited by the non-labelled test compound in proportion to its binding affinity and concentration.
(§2) Cell lines were established that stably express the human variant of the receptor under investigation after transfection with the appropriate cDNA (Table 1). Transfected cells were grown under standard culture conditions, and membrane fractions were obtained upon centrifugation and homogenisation of the cells. Optimal membrane dilutions for binding studies were determined and aliquots were stored at −70° C. until use. In a 96-well plate format, the appropriate radioligand was added to the membrane preparation containing the receptor under investigation. Compound solutions were prepared in DMSO, and diluted 100-fold into the multiwell plate to a final test concentration of 10^−9 to 10^−5 M. After incubation with the test compound, the unbound radioligand was removed by filtration on G/F filters with a Filtermate 96. Microscint™ was added to the washed filter plates and the radioactivity bound to the receptor was measured by liquid scintillation counting in a TopCount (Packard). To measure the Non-Specific Binding (NSB), a high concentration of the non-radiolabeled ligand was added to wells containing the membrane fraction and the radioligand.
(§3) From this, the pIC50 value (inhibitory concentration causing 50% displacement of specific binding) was determined, as well as an estimate of the slope of the plot (Hill coefficient).

5HT3A/B = target: T2, 5HT3A/B (Homo sapiens, UniProt O95264+P46098); experiment: Competitive radioligand binding, 5HT3A/B; conditions: HEK293 membranes, 3H-GR65630 0.5 nM; for IC50: read-out: pIC50 5HT3A/B (converted)
T2 construct: expressed in transfected cells; host or cells: HEK293 (membrane fraction)
T2 sequence (P46098 24-478): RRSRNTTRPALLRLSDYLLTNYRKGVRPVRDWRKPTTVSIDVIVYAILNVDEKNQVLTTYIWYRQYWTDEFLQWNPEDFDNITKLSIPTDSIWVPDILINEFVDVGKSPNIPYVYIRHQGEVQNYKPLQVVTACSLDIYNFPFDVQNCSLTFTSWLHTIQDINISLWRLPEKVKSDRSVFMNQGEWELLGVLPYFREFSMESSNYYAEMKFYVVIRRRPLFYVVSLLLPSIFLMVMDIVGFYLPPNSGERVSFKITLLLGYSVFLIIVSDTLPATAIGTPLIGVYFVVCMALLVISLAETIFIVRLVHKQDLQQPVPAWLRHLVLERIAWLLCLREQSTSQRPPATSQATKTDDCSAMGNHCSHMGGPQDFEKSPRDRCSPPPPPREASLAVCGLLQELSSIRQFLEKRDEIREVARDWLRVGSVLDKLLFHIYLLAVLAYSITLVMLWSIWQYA
T2 sequence (O95264 22-441): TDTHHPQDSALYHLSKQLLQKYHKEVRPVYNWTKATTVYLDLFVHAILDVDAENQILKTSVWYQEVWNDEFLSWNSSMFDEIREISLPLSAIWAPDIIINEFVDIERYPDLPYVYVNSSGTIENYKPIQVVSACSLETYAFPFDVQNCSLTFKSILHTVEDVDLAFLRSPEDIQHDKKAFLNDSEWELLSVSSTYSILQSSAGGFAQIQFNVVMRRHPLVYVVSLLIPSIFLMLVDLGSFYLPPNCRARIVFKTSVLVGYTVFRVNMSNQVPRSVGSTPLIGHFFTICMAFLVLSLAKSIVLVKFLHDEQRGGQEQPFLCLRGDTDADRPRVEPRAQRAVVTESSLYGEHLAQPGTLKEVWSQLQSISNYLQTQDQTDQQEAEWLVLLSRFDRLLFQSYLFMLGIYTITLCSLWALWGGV
Experimental: as §1, §2
Using in house developed software, a best-fit curve was fitted by a minimum sum of squares method to the plot of % inhibition vs. concentration of the test compound. From this, the pIC50 value (inhibitory concentration causing 50% displacement of specific binding) was determined, as well as an estimate of the slope of the plot (Hill coefficient).

5HT4B = target: T3, 5HT4B (Homo sapiens, UniProt Q13639); experiment: Competitive radioligand binding, 5HT4B; conditions: HEK293 membranes, 3H-GR113808 0.1 nM; for IC50: read-out: pIC50 5HT4B (converted)
T3 construct: expressed in transfected cells; host or cells: HEK293 (membrane fraction)
T3 sequence (Q13639 whole entry): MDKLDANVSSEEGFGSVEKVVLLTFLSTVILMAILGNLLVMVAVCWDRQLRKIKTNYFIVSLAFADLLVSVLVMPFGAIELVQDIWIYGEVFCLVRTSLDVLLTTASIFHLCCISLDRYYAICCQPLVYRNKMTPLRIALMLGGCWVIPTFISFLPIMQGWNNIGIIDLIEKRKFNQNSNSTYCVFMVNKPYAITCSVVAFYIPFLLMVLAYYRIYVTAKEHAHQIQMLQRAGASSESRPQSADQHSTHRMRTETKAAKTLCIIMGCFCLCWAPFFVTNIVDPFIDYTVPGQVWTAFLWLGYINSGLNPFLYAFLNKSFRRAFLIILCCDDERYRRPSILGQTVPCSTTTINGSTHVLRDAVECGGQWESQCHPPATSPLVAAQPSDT
Experimental: as §1, §2, §3

Alpha2A = target: T4, Alpha2A (Homo sapiens, UniProt P08913); experiment: Competitive radioligand binding, Alpha2A; conditions: CHO membranes, 3H-rauwolscine 1 nM; for IC50: read-out: pIC50 Alpha2A (converted)
T4 construct: expressed in transfected cells; host or cells: CHO (membrane fraction)
T4 sequence (P08913 1-465): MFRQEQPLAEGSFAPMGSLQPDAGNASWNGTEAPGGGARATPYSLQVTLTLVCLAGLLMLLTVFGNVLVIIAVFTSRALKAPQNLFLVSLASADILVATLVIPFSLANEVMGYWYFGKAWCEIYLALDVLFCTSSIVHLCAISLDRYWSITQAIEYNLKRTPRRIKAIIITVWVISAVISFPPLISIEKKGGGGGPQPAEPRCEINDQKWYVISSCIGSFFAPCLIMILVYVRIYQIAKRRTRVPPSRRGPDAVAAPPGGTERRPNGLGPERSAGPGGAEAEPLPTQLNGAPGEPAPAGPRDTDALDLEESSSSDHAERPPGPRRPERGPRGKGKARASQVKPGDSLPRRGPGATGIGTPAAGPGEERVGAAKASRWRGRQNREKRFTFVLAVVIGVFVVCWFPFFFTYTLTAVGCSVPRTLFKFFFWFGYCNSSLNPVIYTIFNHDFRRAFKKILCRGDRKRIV
Experimental: as §1, §2

5HT2B = 5HT2B (Homo sapiens, UniProt P41595); experiment: Competitive radioligand binding, 5HT2B; set-up: expressed in transfected cells; host or cells: CHO (membrane fraction); conditions: CHO membranes, 3H-5-HT 4 nM; read-out: pIC50 5HT2B (converted)
Chain of 5HT2B (P41595 whole entry): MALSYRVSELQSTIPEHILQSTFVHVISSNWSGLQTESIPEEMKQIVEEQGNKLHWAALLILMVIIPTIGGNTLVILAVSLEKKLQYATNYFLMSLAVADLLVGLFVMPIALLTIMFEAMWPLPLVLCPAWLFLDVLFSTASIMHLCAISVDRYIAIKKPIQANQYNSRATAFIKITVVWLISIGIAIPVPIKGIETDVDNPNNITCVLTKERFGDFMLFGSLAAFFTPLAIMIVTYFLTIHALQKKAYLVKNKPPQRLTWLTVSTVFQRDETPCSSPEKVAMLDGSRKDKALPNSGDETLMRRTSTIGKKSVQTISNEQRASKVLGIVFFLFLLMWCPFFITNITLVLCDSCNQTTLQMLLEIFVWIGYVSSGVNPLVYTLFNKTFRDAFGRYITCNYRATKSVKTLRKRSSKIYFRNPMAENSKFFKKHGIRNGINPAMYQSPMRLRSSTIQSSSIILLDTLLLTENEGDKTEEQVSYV
Experimental: as §1, §2, §3

T1 sequence (P28223 whole entry): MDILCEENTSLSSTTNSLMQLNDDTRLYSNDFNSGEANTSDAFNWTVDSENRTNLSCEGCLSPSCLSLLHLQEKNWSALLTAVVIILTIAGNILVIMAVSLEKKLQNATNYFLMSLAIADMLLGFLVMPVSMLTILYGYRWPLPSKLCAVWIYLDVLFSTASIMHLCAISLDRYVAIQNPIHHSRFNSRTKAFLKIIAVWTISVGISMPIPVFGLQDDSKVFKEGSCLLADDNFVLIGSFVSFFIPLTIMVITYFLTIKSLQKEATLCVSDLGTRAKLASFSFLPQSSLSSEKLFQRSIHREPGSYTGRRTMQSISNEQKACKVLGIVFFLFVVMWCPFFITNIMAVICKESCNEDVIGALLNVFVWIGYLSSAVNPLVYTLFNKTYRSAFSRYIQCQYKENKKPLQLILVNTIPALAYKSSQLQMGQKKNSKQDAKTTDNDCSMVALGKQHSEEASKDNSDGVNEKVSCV

Row | SMILES | IC50 (5HT2A) | IC50 (5HT3A/B) | IC50 (5HT4B) | IC50 (Alpha2A) | IC50 (5HT2B) | pIC50 5HT3A/B (5HT3A/B) | pIC50 5HT4B (5HT4B) | pIC50 Alpha2A (Alpha2A)
1 | COc1cc(N)c(Cl)cc1C(=O)N[C@@H]1CCN(CCCOc2ccc(F)cc2)C[C@H]1F (racemic) [(±)-7, trans-4-amino-5-chloro-N-{3-fluoro-1-[3-(4-fluorophenoxy)-propyl]-piperidin-4-yl}-2-methoxybenzamide] | 112 nM | > 10000 nM | 617 nM | 3630 nM | 107 nM |  |  | 
2 | COc1cc(N)c(Cl)cc1C(=O)N[C@H]1CCN(CCCOc2ccc(F)cc2)C[C@H]1F (racemic) [(±)-12, cis-4-amino-5-chloro-N-{3-fluoro-1-[3-(4-fluorophenoxy)-propyl]-piperidin-4-yl}-2-methoxybenzamide] | 363 nM | 6760 nM | 115 nM | 4790 nM | 66.1 nM |  |  | 
3 | COc1cc(N)c(Cl)cc1C(=O)NC1CCN(CCCOc2ccc(F)cc2)CC1(F)F (racemic) [(±)-17, 4-amino-5-chloro-N-{3,3-difluoro-1-[3-(4-fluorophenoxy)-propyl]-piperidin-4-yl}-2-methoxybenzamide] | 1950 nM | > 10000 nM | > 10000 nM | > 10000 nM | 13.8 nM |  |  | 
4 | COc1cc(N)c(Cl)cc1C(=O)N[C@@H]1CCN(CCCOc2ccc(F)cc2)C[C@H]1F (single isomer, unassigned) [(+)-7, trans-4-amino-5-chloro-N-{3-fluoro-1-[3-(4-fluorophenoxy)-propyl]-piperidin-4-yl}-2-methoxybenzamide] | 70.8 nM | > 10000 nM | 871 nM | > 10000 nM | 129 nM |  |  | 
5 | COc1cc(N)c(Cl)cc1C(=O)N[C@H]1CCN(CCCOc2ccc(F)cc2)C[C@H]1F (single isomer, unassigned) [(+)-12, cis-4-amino-5-chloro-N-{3-fluoro-1-[3-(4-fluorophenoxy)-propyl]-piperidin-4-yl}-2-methoxybenzamide] | 324 nM | > 10000 nM | 126 nM |  | 148 nM |  |  | 
6 | COc1cc(N)c(Cl)cc1C(=O)N[C@@H]1CCN(CCCOc2ccc(F)cc2)C[C@H]1F (single isomer, unassigned) [(−)-7, trans-4-amino-5-chloro-N-{3-fluoro-1-[3-(4-fluorophenoxy)-propyl]-piperidin-4-yl}-2-methoxybenzamide] | 759 nM |  | 437 nM | 7760 nM | 251 nM | <5 |  | 
7 | COc1cc(N)c(Cl)cc1C(=O)N[C@H]1CCN(CCCOc2ccc(F)cc2)C[C@H]1F (single isomer, unassigned) [(−)-12, cis-4-amino-5-chloro-N-{3-fluoro-1-[3-(4-fluorophenoxy)-propyl]-piperidin-4-yl}-2-methoxybenzamide] | 490 nM | 2750 nM | 537 nM | 8130 nM | 72.4 nM |  |  | 
8 | COc1cc(N)c(Cl)cc1C(=O)NC1CCN(CCCOc2ccc(F)cc2)CC1(F)F (single isomer, unassigned) [Compound (−)-17, 4-amino-5-chloro-N-{3,3-difluoro-1-[3-(4-fluorophenoxy)-propyl]-piperidin-4-yl}-2-methoxybenzamide] | 1740 nM |  |  |  | 7.24 nM | <5 | <5 | <5
9 | COc1cc(N)c(Cl)cc1C(=O)NC1CCN(CCCOc2ccc(F)cc2)CC1(F)F (single isomer, unassigned; (+)) [(+)-17, 4-amino-5-chloro-N-{3,3-difluoro-1-[3-(4-fluorophenoxy)-propyl]-piperidin-4-yl}-2-methoxybenzamide] | 2570 nM | > 10000 nM | > 10000 nM | > 10000 nM | 51.3 nM |  |  | 
